# Reference: patent publication US8962842B2, “2-pyridone antimicrobial compositions” (priority 2010, dated 2015)
# Read-outs that look alike come from different tables or passages of the source.
# Assays:
# [1] = test system: Streptococcus pneumonia (5 strains); experiment: MIC range, broader panel of Quotient Bioresearch strains (Table 3); details: Streptococcus pneumoniae
# [2] = physchem; assay type: physicochemical; details: thermodynamic from solid
# Procedure: The solutions were incubated at room temperature for 24 hours before quantification by HPLC detection. Aqueous solubility was evaluated in simulated gastric fluid (SGF), simulated intestinal fluid (SIF) and phosphate buffer saline (PBS) pH 7.4. Aqueous solubility is expressed in Table 11 as mean solubility in μM.
# [3] = test system: Bacterial strains injected into thigh muscles; assay type: in vivo, mice; details: 30 mg/kg TDS p.o.
# [4] = test system: Acinetobacter baumannii, quinolone-resistant strains (Quotient Bioresearch catalogue); experiment: MIC against pathogens resistant against quinolones (Table 5); assay type: cell-based; details: Acinetobacter baumannii, GN54
# [5] = test system: Enterococcus faecium (3 strains); experiment: MIC range, broader panel of Quotient Bioresearch strains (Table 3)
# [6] = test system: Klebsiella pneumonia (4 strains); experiment: MIC range, broader panel of Quotient Bioresearch strains (Table 4); assay type: cell-based; details: Klebsiella pneumoniae
# [7] = molecular target: bacterial topoisomerase IV (Escherichia coli, UniProt P0AFI2+P20083); experiment: Inhibition of topoisomerases activity in vitro, Topogen protocol TG1007 (Table 7); assay type: biochemical
# [8] = molecular target: T1, human topoisomerase I (Homo sapiens, UniProt P11387); experiment: Inhibition of topoisomerases activity in vitro, Topogen protocol TG1015 (Table 7); assay type: biochemical; details: read-out: IC50 hTopo I Assay
# T1 construct: purchased Topogen Inc., Port Orange, USA TG1015
# T1 sequence (P11387 1-765): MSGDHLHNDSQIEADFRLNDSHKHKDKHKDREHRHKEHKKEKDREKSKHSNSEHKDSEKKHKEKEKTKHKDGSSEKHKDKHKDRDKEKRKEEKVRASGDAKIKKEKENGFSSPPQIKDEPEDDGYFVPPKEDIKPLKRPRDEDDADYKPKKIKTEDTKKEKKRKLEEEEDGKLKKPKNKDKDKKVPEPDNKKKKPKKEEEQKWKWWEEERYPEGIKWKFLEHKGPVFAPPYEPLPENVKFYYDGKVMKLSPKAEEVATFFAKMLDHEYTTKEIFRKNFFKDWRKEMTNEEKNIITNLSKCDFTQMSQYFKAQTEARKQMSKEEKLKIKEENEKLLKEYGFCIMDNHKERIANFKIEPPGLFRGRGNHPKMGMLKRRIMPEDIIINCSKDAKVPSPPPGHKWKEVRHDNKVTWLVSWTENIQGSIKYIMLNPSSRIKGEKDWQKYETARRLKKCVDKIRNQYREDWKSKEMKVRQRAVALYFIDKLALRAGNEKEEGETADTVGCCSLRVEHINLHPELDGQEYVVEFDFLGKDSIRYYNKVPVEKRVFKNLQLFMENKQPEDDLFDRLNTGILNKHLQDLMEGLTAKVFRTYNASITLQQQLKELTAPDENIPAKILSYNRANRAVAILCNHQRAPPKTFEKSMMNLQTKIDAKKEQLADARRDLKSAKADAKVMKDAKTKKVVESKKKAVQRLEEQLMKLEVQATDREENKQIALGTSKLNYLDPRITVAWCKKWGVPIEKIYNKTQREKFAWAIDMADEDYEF
# [9] = test system: Acinetobacter baumannii (12 strains); experiment: MIC range, broader panel of Quotient Bioresearch strains (Table 4); assay type: cell-based
# [10] = molecular target: bacterial gyrase (Escherichia coli, UniProt P0AES4+P0AES6); experiment: Inhibition of topoisomerases activity in vitro, Topogen protocol TG1003 (Table 7); assay type: biochemical
# [11] = test system: Enterococcus faecalis (5 strains); experiment: MIC range, broader panel of Quotient Bioresearch strains (Table 3)
# [12] = Metabolic stability in liver microsomes +/- S9 fraction (Table 8); assay type: in vitro ADME; details: 1 μM
# Procedure: Metabolic stability of a select number of examples was tested in liver microsomes+/−addition of S9 fraction as described by Kuhnz, W. and Gieschen, H. (1998), Drug Metab. Dispos., 1120-1127. Test concentration was 1 μM and HPLC/MS-MS was used for detection.
# [13] = test system: Pseudomonas aeruginosa (12 strains); experiment: MIC range, broader panel of Quotient Bioresearch strains (Table 4); assay type: cell-based
# [14] = test system: Staphylococcus aureus, quinolone-resistant strains (Quotient Bioresearch catalogue); experiment: MIC against pathogens resistant against quinolones (Table 5); details: strain GP82, Staphylococcus aureus levofloxacin-resistant clinical isolate, amino acid changes GrlA, GrlB & GyrA
# [15] = test system: Group C Streptococcus (4 strains); experiment: MIC range, broader panel of Quotient Bioresearch strains (Table 3)
# [16] = test system: Escherichia coli (6 strains); experiment: MIC range, broader panel of Quotient Bioresearch strains (Table 4); assay type: cell-based
# [17] = test system: Streptococcus pyogenes (4 strains); experiment: MIC range, broader panel of Quotient Bioresearch strains (Table 3)
# [18] = test system: Haemophilus influenza (5 strains); experiment: MIC range, broader panel of Quotient Bioresearch strains (Table 4); assay type: cell-based, Haemophilus influenzae
# Sequence of bacterial topoisomerase IV (P20083 whole entry): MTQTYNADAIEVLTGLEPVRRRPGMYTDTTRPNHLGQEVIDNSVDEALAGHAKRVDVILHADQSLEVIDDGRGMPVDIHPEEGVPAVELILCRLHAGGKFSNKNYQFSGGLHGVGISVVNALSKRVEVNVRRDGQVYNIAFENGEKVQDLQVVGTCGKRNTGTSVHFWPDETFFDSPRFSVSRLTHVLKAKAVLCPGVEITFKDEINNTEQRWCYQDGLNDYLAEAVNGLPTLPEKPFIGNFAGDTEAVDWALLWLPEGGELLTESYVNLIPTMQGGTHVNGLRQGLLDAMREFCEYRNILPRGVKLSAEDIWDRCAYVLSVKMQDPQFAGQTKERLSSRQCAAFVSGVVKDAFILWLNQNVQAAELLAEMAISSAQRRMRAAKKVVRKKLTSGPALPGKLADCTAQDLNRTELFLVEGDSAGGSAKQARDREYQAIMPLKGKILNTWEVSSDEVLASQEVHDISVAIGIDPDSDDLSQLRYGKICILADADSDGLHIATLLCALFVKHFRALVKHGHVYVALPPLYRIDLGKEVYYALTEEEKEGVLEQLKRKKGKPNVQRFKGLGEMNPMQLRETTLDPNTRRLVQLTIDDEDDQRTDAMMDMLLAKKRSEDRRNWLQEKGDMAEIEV
# Sequence of bacterial topoisomerase IV (P0AFI2 whole entry): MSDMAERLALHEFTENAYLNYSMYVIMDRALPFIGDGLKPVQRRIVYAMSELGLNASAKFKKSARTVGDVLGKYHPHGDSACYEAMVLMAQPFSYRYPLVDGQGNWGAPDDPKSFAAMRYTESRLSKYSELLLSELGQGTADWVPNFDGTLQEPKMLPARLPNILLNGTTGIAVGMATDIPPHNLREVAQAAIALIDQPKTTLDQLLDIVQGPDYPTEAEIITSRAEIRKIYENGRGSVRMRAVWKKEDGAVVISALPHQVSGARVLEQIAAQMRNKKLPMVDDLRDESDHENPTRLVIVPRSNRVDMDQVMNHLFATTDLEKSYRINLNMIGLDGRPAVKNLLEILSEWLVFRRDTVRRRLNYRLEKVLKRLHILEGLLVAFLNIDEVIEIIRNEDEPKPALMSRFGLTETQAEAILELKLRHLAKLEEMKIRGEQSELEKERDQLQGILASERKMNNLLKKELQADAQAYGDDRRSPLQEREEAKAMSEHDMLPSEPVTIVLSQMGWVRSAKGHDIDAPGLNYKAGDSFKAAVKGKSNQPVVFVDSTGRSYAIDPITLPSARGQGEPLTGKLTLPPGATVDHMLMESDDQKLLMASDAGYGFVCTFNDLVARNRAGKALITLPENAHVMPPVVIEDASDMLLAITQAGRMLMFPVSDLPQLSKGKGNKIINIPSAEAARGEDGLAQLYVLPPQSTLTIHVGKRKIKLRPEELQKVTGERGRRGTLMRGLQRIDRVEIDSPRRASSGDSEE
# Sequence of bacterial gyrase (P0AES4 whole entry, one chain of several): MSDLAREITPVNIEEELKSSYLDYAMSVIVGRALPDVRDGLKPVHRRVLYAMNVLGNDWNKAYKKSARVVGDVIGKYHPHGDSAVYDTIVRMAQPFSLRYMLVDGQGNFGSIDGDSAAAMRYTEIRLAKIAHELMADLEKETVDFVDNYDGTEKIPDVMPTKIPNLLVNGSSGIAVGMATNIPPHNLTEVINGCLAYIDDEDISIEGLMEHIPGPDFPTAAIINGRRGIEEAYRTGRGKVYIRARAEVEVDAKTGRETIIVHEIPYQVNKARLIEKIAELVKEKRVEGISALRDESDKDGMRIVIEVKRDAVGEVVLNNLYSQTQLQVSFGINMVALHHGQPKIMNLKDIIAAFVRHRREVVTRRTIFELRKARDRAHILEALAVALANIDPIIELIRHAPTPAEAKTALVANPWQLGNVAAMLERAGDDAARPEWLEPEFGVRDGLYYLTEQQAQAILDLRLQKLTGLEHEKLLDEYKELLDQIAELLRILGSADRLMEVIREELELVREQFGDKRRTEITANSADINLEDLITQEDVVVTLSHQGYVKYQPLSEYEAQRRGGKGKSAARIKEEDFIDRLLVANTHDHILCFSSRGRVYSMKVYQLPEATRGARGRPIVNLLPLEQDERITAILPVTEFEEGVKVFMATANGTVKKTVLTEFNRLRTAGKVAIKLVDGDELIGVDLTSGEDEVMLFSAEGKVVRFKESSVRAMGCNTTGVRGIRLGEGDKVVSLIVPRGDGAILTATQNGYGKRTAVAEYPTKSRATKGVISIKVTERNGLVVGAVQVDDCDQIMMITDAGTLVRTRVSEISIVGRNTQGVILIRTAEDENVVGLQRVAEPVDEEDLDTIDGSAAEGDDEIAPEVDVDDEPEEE
compound,measurement,setting,value
"Cc1c(-c2ccc3[nH]ncc3c2)ccn2c(=O)c(C(=O)[O-])cc(C3CC3)c12.[K+] [Example 23 K salt, potassium 1-cyclopropyl-8-(1H-indazol-5-yl)-9-methyl-4-oxo-4H-quinolizine-3-carboxylate]",MIC,"[1]; read-out: MIC Range Low, Streptococcus pneumonia (5 strains)",≤ 0.015 µg/mL
same,MIC50,"[1]; read-out: MIC Range Median, Streptococcus pneumonia (5 strains)",0.03 µg/mL
same,solubility at 24 h,[2]; fassgf or other biorelevant,105 µM
same,solubility at 24 h,"[2]; pH 7.4, aqueous buffer",37 µM
same,solubility at 24 h,[2]; simulated gastric fluid,8 µM
same,Log reduction (LgR) from vehicle control (CFU/g),"[3]; E. coli ATCC 25922, mouse thigh",2.82
same,Log reduction (LgR) from vehicle control (CFU/g),"[3]; MRSA ATCC 43300, mouse thigh",4.66
same,MIC,[4],1 µg/mL
same,MIC,"[5]; read-out: MIC Range Low, Enterococcus faecium (3 strains)",0.06 µg/mL
same,MIC50,"[5]; read-out: MIC Range Median, Enterococcus faecium (3 strains)",0.25 µg/mL
same,MIC,"[6]; read-out: MIC Range High, Klebsiella pneumonia (4 strains)",16 µg/mL
same,MIC,"[6]; read-out: MIC Range Low, Klebsiella pneumonia (4 strains)",0.06 µg/mL
same,MIC50,"[6]; read-out: MIC Range Median, Klebsiella pneumonia (4 strains)",5 µg/mL
same,IC50,[7],4.34 µM
same,IC50,[8],> 140 µM
same,MIC,"[9]; read-out: MIC Range High, Acinetobacter baumannii (12 strains)",8 µg/mL
same,MIC,"[9]; read-out: MIC Range Low, Acinetobacter baumannii (12 strains)",0.03 µg/mL
same,MIC50,"[9]; read-out: MIC Range Median, Acinetobacter baumannii (12 strains)",3 µg/mL
same,IC50,[10],≤ 1390 nM
same,MIC,"[11]; read-out: MIC Range Low, Enterococcus faecalis (5 strains)",≤ 0.015 µg/mL
same,MIC50,"[11]; read-out: MIC Range Median, Enterococcus faecalis (5 strains)",≤ 0.015 µg/mL
same,Mean Parent Remaining,"[12]; Liver microsomes + S9, human",80%
same,Mean Parent Remaining,"[12]; Liver microsomes + S9, mouse",2%
same,Mean Parent Remaining,"[12]; Liver microsomes, human",67%
same,Mean Parent Remaining,"[12]; Liver microsomes, mouse",2%
same,MIC,"[13]; read-out: MIC Range High, Pseudomonas aeruginosa (12 strains)",16 µg/mL
same,MIC,"[13]; read-out: MIC Range Low, Pseudomonas aeruginosa (12 strains)",0.25 µg/mL
same,MIC50,"[13]; read-out: MIC Range Median, Pseudomonas aeruginosa (12 strains)",2 µg/mL
same,MIC,[14],≤ 0.015 µg/mL
same,MIC,"[15]; read-out: MIC Range High, Group C Streptococcus (4 strains)",0.03 µg/mL
same,MIC,"[15]; read-out: MIC Range Low, Group C Streptococcus (4 strains)",≤ 0.015 µg/mL
same,MIC50,"[15]; read-out: MIC Range Median, Group C Streptococcus (4 strains)",≤ 0.015 µg/mL
same,MIC,"[16]; read-out: MIC Range High, Escherichia coli (6 strains)",16 µg/mL
same,MIC,"[16]; read-out: MIC Range Low, Escherichia coli (6 strains)",≤ 0.015 µg/mL
same,MIC50,"[16]; read-out: MIC Range Median, Escherichia coli (6 strains)",4 µg/mL
same,MIC,"[17]; read-out: MIC Range High, Streptococcus pyogenes (4 strains)",0.03 µg/mL
same,MIC,"[17]; read-out: MIC Range Low, Streptococcus pyogenes (4 strains)",≤ 0.015 µg/mL
same,MIC50,"[17]; read-out: MIC Range Median, Streptococcus pyogenes (4 strains)",0.03 µg/mL
same,MIC50,"[18]; 16 h, Median of the strain panel",≤ 0.015 µg/mL
same,MIC,"[18]; High of the strain panel, read-out: MIC Range High, Haemophilus influenza (5 strains)",≤ 0.015 µg/mL
same,MIC,"[18]; Low of the strain panel, read-out: MIC Range Low, Haemophilus influenza (5 strains)",≤ 0.015 µg/mL
